# Assay results from US20210402002A1, “CONJUGATE” (priority 2018, published 2021).
# Key:
# SKBR-3 cells [1] = test: ADCC assay (LDH cytotoxicity) with SKBR-3 cells pre-incubated with glycosylation inhibitors; format: cell-based
# Protocol: (§1) SKBR-3 and SKOV-3 cells were cultured on 96-well plates in recommended conditions and incubated with or without glycosylation inhibitors or ADCs for four days as described above. […] After 3.5 h at +37° C., cytotoxicity was assessed with commercial lactate dehydrogenase assay kit (Cytotoxicity detection kit (LDH), Thermo Fischer Scientific) and the cytotoxicities were calculated as proportion of killed cells (%, average of three parallel wells).
# HSC-2 cancer cells = test: FACS staining of HSC-2 cells with lectins, Galectin-1 and Siglec-7 after incubation with glycosylation inhibitors; format: cell-based; conditions: 2 days, compared to untreated cells; for sialylation/Siglec-7 ligand glycosylation, SNA-I and Siglec-7 staining: 200 μM; for Galectin-1 ligand glycosylation, lectin and Galectin-1 staining: 100 μM
# Protocol: In another experiment, HSC-2 cancer cells were cultured for two days, after which glycosylation inhibitors were added to the cell culture medium: 200 μM β-3-Fax-Neu5Ac and 100 μM β-4-F-GlcNAc. The cells were then cultured for 2 days with inhibitors. In parallel, untreated cells were cultured in normal cell culture medium. For flow cytometry analysis cells were detached with trypsin, washed, and stained with FITC-conjugated lectins, AlexaFluor488-conjugated Galectin-1 and recombinant human Siglec-7 (R&D Systems) at +4° C. for 30-45 minutes (the Siglec-samples were further stained with AlexaFluor488-conjugated anti-human IgG antibody at +4° C. for 30-45 minutes). FACS was performed as above.
# [2] = system: SKOV-3 ovarian carcinoma cells; test: FACS staining of SKOV-3 cells with labeled lectins and Galectins after incubation with glycosylation inhibitors; format: cell-based; conditions: compared to untreated cells; for cell surface sialylation, SNA-I-FITC lectin staining: 100 μM, 3 days; for Galectin ligand expression, LEA-FITC, Galectin-1 and Galectin-3 staining: 50 μM, 4 days
# Protocol: SKOV-3 ovarian carcinoma cells (ATCC, Manassas, Va., USA) were cultured according to ATCC's instructions and incubated in the presence of either 50 μM 2-acetamido-2,4-dideoxy-4-fluoro-1,3,6-tri-O-acetyl-D-glucose for 4 days (β-4-F-GlcNAc; Sussex Research, Ottawa, Canada), 100 μM 5-acetamido-3,5-dideoxy-3-fluoro-2,4,7,8,9-penta-O-acetyl-D-erythro-L-manno-2-nonulosonic acid methyl ester (β-3-Fax-Neu5Ac; Tocris Bioscience, Abingdon, United Kingdom) for 3 days, or DMSO carrier control in parallel. After the incubation, cells were stained with fluorescein-labeled lectins SNA-I-FITC for α2,6-sialylation, LEA-FITC for poly-N-acetyllactos-amines (both from EY Labs, San Mateo, Calif., USA), Alexa Fluor 488-conjugated human recombinant Galectin-1, and Alexa Fluor 488-conjugated human recombinant Galectin-3 (both from Abcam, Cambridge, United Kingdom). Cells were washed and stored on ice in the dark until analysed by FACSAriaII flow cytometer.
# SKOV-3 cells = test: ADCC assay (LDH cytotoxicity) with SKOV-3 cells pre-incubated with glycosylation inhibitors; format: cell-based
# Protocol: as §1
# SKBR-3 cells [3] = test: N-glycan profiling by MALDI-TOF MS, high-mannose N-glycans (mannosidase I inhibition); format: cell-based; conditions: 10 μM, four days, control cells 7.07
# SKBR-3 cells [4] = system: SKBR-3 cells
# [5] = system: NCI-N87 cancer cell line tumors; test: In vivo efficacy trial, tumors on chicken egg chorioallantoic membrane (CAM); conditions: day E18, trastuzumab and tunicamycin-ADC single dose 2.5 mg/kg, pembrolizumab […] five doses, PBS control 32.2
# Protocol: (§2) The study was performed by Inovotion SAS (La Tronche, France) as follows: Fertilized chicken eggs were incubated at 37.5° C. with 50% relative humidity for 9 days (E9), when the chorioallantoic membrane (CAM) was dropped down by drilling a small hole through the eggshell into the air sac, and a 1 cm^2 window was cut in the eggshell above the CAM. The NCI-N87 cell line was cultivated in RPMI-1640 medium supplemented with 10% FBS and 1% penicillin/streptomycin. On day E9, cells were detached by trypsin, washed with complete medium and suspended in graft medium. An inoculum of 2 million cells was added onto the CAM of each egg. […] On day 18 (E18) the upper portion of the CAM was removed, washed in PBS and then directly transferred in PFA (fixation for 48 h). The tumors were then carefully cut away from normal CAM tissue and weighed. Eggs were checked at each treatment time, or at least every two days, for viability during the study. At the end of the study, the number of dead embryos was counted and combined with the observation of eventual visible macroscopic abnormalities (observation done during the sample collection) to evaluate the toxicity.
# egg embryos = test: Embryo toxicity in the CAM in vivo trial (% alive egg embryos); set-up: species or system chicken; conditions: alive egg embryos at end of study; same dosing; PBS control 83
# Protocol: as §2
# HER2 = test: Inhibition of HER2 glycoprotein N-glycosylation in SKBR-3 cells (SDS-PAGE, anti-HER2 immunoblot); format: cell-based, human
# From the text: After six days' culture, the cells were lysed and samples from each treatment were subjected to SDS-PAGE and immunoblotting with anti-HER2 antibody (anti-human ErbB2/Her2 goat polyclonal antibody AF1129, R&D Systems) with standard procedures.
# [6] = second assay, SKBR-3, 50 μM inhibitor and trastuzumab only, no effector cells
# [7] = second assay, SKBR-3, 50 μM inhibitor, trastuzumab and effector cells applied
# [8] = SKOV-3, 50 μM inhibitor and trastuzumab only, no effector cells
# [9] = SKOV-3, 50 μM inhibitor, trastuzumab and effector cells applied
compound,measurement,setting,value
"COC(=O)C1(OC(C)=O)O[C@@H]([C@H](OC(C)=O)[C@@H](COC(C)=O)OC(C)=O)[C@H](NC(C)=O)[C@@H](OC(C)=O)[C@H]1F (stereo partly drawn) [P-3Fax-Neu5Ac, 5-acetamido-3,5-dideoxy-3-fluoro-2,4,7,8,9-penta-O-acetyl-D-erythro-L-manno-2-nonulosonic acid methyl ester]",absorbance reading in the cytotoxicity assay,"SKBR-3 cells [1]; third assay, SKBR-3, 50 μM inhibitor, trastuzumab and effector cells applied",about 0.7
same,"sialylation/Siglec-7 ligand glycosylation, SNA-I and Siglec-7 staining",HSC-2 cancer cells,effective inhibition
same,"sialylation/Siglec-7 ligand glycosylation, SNA-I and Siglec-7 staining",HSC-2 cancer cells; listed as β-3-Fax-Neu5Ac,clearly decreased
same,"cell surface sialylation, SNA-I-FITC lectin staining",[2],effective inhibition
same,"cell surface sialylation, SNA-I-FITC lectin staining",[2]; listed as β-3-Fax-Neu5Ac,clearly decreased
"CC(=O)N[C@H]1C(OC(C)=O)O[C@H](COC(C)=O)[C@@H](F)[C@@H]1OC(C)=O (stereo partly drawn) [P-4F-GlcNAc, 2-acetamido-2,4-dideoxy-4-fluoro-1,3,6-tri-O-acetyl-D-glucose]",cytotoxicity (proportion of killed cells),SKBR-3 cells [1]; [6],1-2%
same,cytotoxicity (proportion of killed cells),SKBR-3 cells [1]; [7],about 16%
same,cytotoxicity (proportion of killed cells),SKOV-3 cells; [8],no cytotoxicity was observed
same,cytotoxicity (proportion of killed cells),SKOV-3 cells; [9],about 5%
same,"Galectin-1 ligand glycosylation, lectin and Galectin-1 staining",HSC-2 cancer cells,effective inhibition
same,"Galectin-1 ligand glycosylation, lectin and Galectin-1 staining",HSC-2 cancer cells; listed as β-4-F-GlcNAc,clearly decreased
same,"Galectin ligand expression, LEA-FITC, Galectin-1 and Galectin-3 staining",[2],effective inhibition
same,"Galectin ligand expression, LEA-FITC, Galectin-1 and Galectin-3 staining",[2]; listed as β-4-F-GlcNAc,clearly decreased
O=C1N[C@@H]2[C@@H](O)[C@@H](O)[C@H](O)[C@@H](CO)N2C1=O [kifunensine],cytotoxicity (proportion of killed cells),"SKBR-3 cells [1]; first assay, SKBR-3, 10 μM inhibitor and trastuzumab only, no effector cells",no cytotoxicity was detected
same,cytotoxicity (proportion of killed cells),"SKBR-3 cells [1]; first assay, SKBR-3, 10 μM inhibitor, trastuzumab and effector cells applied",18.5%
same,cytotoxicity (proportion of killed cells),SKBR-3 cells [1]; [6],2-3%
same,cytotoxicity (proportion of killed cells),SKBR-3 cells [1]; [7],about 19%
same,cytotoxicity (proportion of killed cells),SKOV-3 cells; [8],no cytotoxicity was observed
same,cytotoxicity (proportion of killed cells),SKOV-3 cells; [9],about 2%
same,average number of mannose residues (Man) in the Man5-9GlcNAc2 glycan signal series,SKBR-3 cells [3],8.56
omalizumab-MC-VC-PAB-DMAE-tunicamycin DAR=8 ADC: DAR=8 conjugate of MC-VC-PAB-DMAE-tunicamycin V prepared from omalizumab (negative control antibody),cytotoxicity to the cells in the viability assay,"SKBR-3 cells [4]; five or eight days, up to 1 μM",no apparent toxicity
"pembrolizumab: pembrolizumab (Keytruda, Merck)",Mean tumor size,[5],34.9 mg
same,% alive,egg embryos,58%
tunicamycin,cytotoxicity (proportion of killed cells),"SKBR-3 cells [1]; first assay, SKBR-3, 1 μM inhibitor and trastuzumab only, no effector cells",no cytotoxicity was detected
same,cytotoxicity (proportion of killed cells),"SKBR-3 cells [1]; first assay, SKBR-3, 1 μM inhibitor, trastuzumab and effector cells applied",40.4%
same,cytotoxicity (proportion of killed cells),"SKBR-3 cells [1]; second assay, SKBR-3, 0.5 μM inhibitor and trastuzumab only, no effector cells",about 4%
same,cytotoxicity (proportion of killed cells),"SKBR-3 cells [1]; second assay, SKBR-3, 0.5 μM inhibitor, trastuzumab and effector cells applied",about 46%
same,IC50,"SKBR-3 cells [4]; read-out: IC50 (cellular viability), six days",300 nM
same,EC50,"HER2; six days' incubation, immunoblot, read-out: EC50 (concentration with 50% efficacy) of decrease of relative MW of HER2, defective N-glycosylation",70 nM
same,decrease of relative MW of HER2 upon inhibition of N-glycosylation,"HER2; six days, SDS-PAGE",about 15 kDa
same,cytotoxicity (proportion of killed cells),"SKOV-3 cells; SKOV-3, 0.5 μM inhibitor and trastuzumab only, no effector cells",about 2%
same,cytotoxicity (proportion of killed cells),"SKOV-3 cells; SKOV-3, 0.5 μM inhibitor, trastuzumab and effector cells applied",about 5%
